Reference: patent publication US12286411B2, “Indane derivatives for use in the treatment of bacterial infection” (priority 2018, dated 2025)

Assays:
[1] = molecular target: T1, LasB elastase (dialysed supernatant from P. aeruginosa PAO1) (Pseudomonas aeruginosa, UniProt P14756); assay: Elastin assay to determine % inhibition (Elastin Congo-Red, dialysed PAO1 supernatant); type: biochemical; settings: read-out: Elastin hydrolysis % inhibition @ 50/25 μM inhibitor concentration
T1 construct: Culture supernatants are recovered by centrifugation and filtrated through a 0.22 μM filter; endogenous in cells; host or cells: P. aeruginosa PAO1 culture supernatant, dialysed
T1 sequence (P14756 198-498): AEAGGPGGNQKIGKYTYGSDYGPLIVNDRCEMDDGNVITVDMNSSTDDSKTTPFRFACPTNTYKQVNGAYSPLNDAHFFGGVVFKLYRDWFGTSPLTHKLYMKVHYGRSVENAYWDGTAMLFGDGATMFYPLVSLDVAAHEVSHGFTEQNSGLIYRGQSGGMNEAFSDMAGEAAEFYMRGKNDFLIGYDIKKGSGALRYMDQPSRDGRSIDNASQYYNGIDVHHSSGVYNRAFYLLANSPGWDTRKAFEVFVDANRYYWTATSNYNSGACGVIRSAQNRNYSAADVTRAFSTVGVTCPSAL
Description: Experiments were therefore conducted (1) to measure the potency of inhibition of compounds of the invention against purified Pseudomonas aeruginosa LasB enzyme and also experiments were conducted (2) to measure the ability of compounds of the invention to inhibit LasB-catalysed elastin degradation. The first assay uses a commercial fluorescent synthetic peptide and purified LasB enzyme. The LasB hydrolysis kinetics are measured allowing the determination of the IC50 and Ki of the inhibitors; the second is a more physiological assay using dialysed Pseudomonas aeruginosa supernatant as source of enzyme, plus its natural substrate Elastin. It is an “end point assay” that determines the percentage of LasB inhibition by each compound for one particular time point and inhibitor concentration. Technical details are described below:
The Elastin assay uses as source of enzyme dialysed supernatant from P. aeruginosa PAO1 and the Elastin Congo-Red as substrate. The natural LasB substrate, elastin, is complexed with the congo-red dye (Elastin Congo-Red, ECR). The elastolysis activity from the culture supernatant will degrade elastin and release the congo-red dye into the supernatant. This red dye release can be measured with a spectrophotometer.
Method: To determine LasB elastase activity and assess compound inhibition, an overnight culture of P. aeruginosa strain PA01 is diluted in LB medium. After reaching an ° Dam. of 0.6, this culture is diluted and incubated for additional 18-24 hours in a shaking incubator. Culture supernatants are recovered by centrifugation and filtrated through a […] filter. These supernatants are dialysed (filtration molecules <20 kDa) into a 50 mM Tris-HCl pH 7.4, 2.5 mM CaCl2 solution at 4° C. under agitation for 24 hours. Supernatant dialysed is then mixed volume/volume with the ECR suspension (20 mg/mL of ECR in 100 mM Tris-HCl pH 7.4 buffer supplemented with 1 mM CaCl2) supplemented with Triton X100 (final concentration of 0.01%) in presence of DMSO (positive control) and/or different concentrations of compound (routinely 50 to 1.56 μM). As a negative control, the dialysed supernatant is replaced by Tris-HCl solution (50 mM Tris-HCl pH 7.4, 2.5 mM CaCl2). The mixed reaction is then incubated overnight in a 37° C. shaking incubator. The reaction supernatant is recovered by centrifugation and the release of congo-red is measured by its absorbance at 495 nm (OD495nm).
Percentage inhibition is determined using the following equation: ((OD495nm value of positive control−OD495nm value of negative control)−(OD495nm value of treated supernatant OD495nm value of negative control))/(OD495nm value of positive control−OD495nm value of negative control)×100.

[2] = tested on: Pseudomonas aeruginosa (PAO1); assay: Mouse model of Pseudomonas aeruginosa lung infection; type: in vivo; settings: mice infected intranasally with wild-type PAO1, compound i.v. 1 h and 2 h post infection, 10 and 30 mg/kg, 24 hours post infection
Description: Mice were dosed by intranasal inoculation of PA (PAO1), then scarified after 24 hours. The extent of infection in the lung was quantified by bacterial load (CFU determination, colony forming units) and the levels of proinflammatory IL-1β. Statistical analysis on both readouts were performed by ANOVA with a Dunnett post-test.
Compounds were administered intravenously in a two-dose regimen (1 hour and 2 hours post infection) at two different doses (10 and 30 mg/kg).

Compound | inhibition at 25 µM [1] [%] | production and activation of IL-1β in the lung ([2]; FIG. 2) | extent of infection in the lung (CFU levels) ([2]; FIG. 3)
O=C(O)CC1(C(=O)NCc2nc3ccc(OCCCO)cc3s2)Cc2ccccc2C1 [Example 1, 2-[2-[[6-(3-hydroxypropoxy)-1,3-benzothiazol-2-yl]methylcarbamoyl]indan-2-yl]acetic acid] | > 75 |  | 
CCCOc1ccc2nc(CNC(=O)C3(CC(=O)O)Cc4ccccc4C3)sc2c1 [Example 2, 2-[2-[(6-propoxy-1,3-benzothiazol-2-yl)methylcarbamoyl]indan-2-yl]acetic acid] | > 75 |  | 
COc1cc2sc(CNC(=O)C3(CC(=O)O)Cc4ccccc4C3)nc2cc1OCCCN(C)C [Example 3, 2-[2-[[5-[3-(dimethylamino)propoxy]-6-methoxy-1,3-benzothiazol-2-yl]methylcarbamoyl]indan-2-yl]acetic acid] | > 75 |  | 
COc1cc2sc(CNC(=O)C3(CC(=O)[O-])Cc4ccccc4C3)nc2cc1OCCC[N+](C)(C)C [Example 4, 2-[2-[[6-methoxy-5-[3-(trimethylammonio)propoxy]-1,3-benzothiazol-2-yl]methylcarbamoyl]indan-2-yl]acetate] | > 75 | inhibited the production and activation of IL-1β in mice infected by wild-type PA (PA01) at a similar level than the lasB deleted mutant | reduced the extent of infection in the lung to the level of the LasB deleted mutant
COc1cc2sc(CNC(=O)C3(CC(=O)[O-])Cc4ccccc4C3)nc2cc1OCCOCC[N+](C)(C)C [Example 5, 2-[2-[[6-methoxy-5-[2-[2-(trimethylammonio)ethoxy]ethoxy]-1,3-benzothiazol-2-yl]methylcarbamoyl]indan-2-yl]acetate] | 60 to 75 |  | 
COc1cc2sc(CNC(=O)C3(CC(=O)[O-])Cc4cc(F)c(F)cc4C3)nc2cc1OCCOCC[N+](C)(C)C [Example 6, 2-[5,6-difluoro-2-[[6-methoxy-5-[2-[2-(trimethylammonio)ethoxy]ethoxy]-1,3-benzothiazol-2-yl]methylcarbamoyl]indan-2-yl]acetate] | > 75 |  | 
COc1cc2sc(CNC(=O)C3(CC(=O)[O-])Cc4cc(F)c(F)cc4C3)nc2cc1OCC[N+](C)(C)C [Example 7, 2-[5,6-difluoro-2-[[6-methoxy-5-[2-(trimethylammonio)ethoxy]-1,3-benzothiazol-2-yl]methylcarbamoyl]indan-2-yl]acetate] | 60 to 75 |  | 
